The values below come from patent publication US6743802B2, “Alkyne-aryl phosphodiesterase-4 inhibitors” (Merck Frosst Canada & Co., priority 2001, dated 2004).

In this assay the test system is TNF-α and LTB4. Kind of assay: LPS and FMLP-induced TNF-α and LTB4 assays in human whole blood. The assay is classed as cell-based. To be noted: LPS 1 μg/mL 24 h, then LPS and fMLP 1 μM challenge, marker (TNF-α or LTB4) not specified. On the procedure:
Whole blood provides a protein and cell-rich milieu appropriate for the study of biochemical efficacy of anti-inflammatory compounds such as PDE4-selective inhibitors. […] Upon stimulation with LPS, activated monocytes express and secrete TNF-α up to 8 hours and plasma levels remain stable for 24 hours. Published studies have shown that inhibition of TNF-α by increasing intracellular cAMP via PDE4 inhibition and/or enhanced adenylyl cyclase activity occurs at the transcriptional level. […] As there is little LTB4 produced during a 24 hour LPS stimulation of whole blood, an additional LPS stimulation followed by fMLP challenge of human whole blood is necessary for LTB4 synthesis by activated neutrophils. Thus, by using the same blood sample, it is possible to evaluate the potency of a compound on two surrogate markers of PDE4 activity in the whole blood by the following procedure.
Fresh blood was collected in heparinized tubes by venipuncture from healthy human volunteers (male and female). These subjects had no apparent inflammatory conditions and had not taken any NSAIDs for at least 4 days prior to blood collection. 500 μL aliquots of blood were pre-incubated with either 2 μL of vehicle (DMSO) or 2 μL of test compound at varying concentrations for 15 minutes at 37° C. […]

Usually IC50 stands for the concentration that gives 50% inhibition. `CC(C)NC(=O)c1cn(-c2cccc(C#Cc3cccc(C(C)(C)O)n3)c2)c2ncccc2c1=O` [Example 28, N-Isopropyl-1-{3-[6-(1-hydroxy-1-methylethyl)-2-pyridinylethynyl]phenyl}-1,4-dihydro [1,8]naphthyridin-4-one-3-carboxamide] registered an IC50 of 0.01 to 2.4 µM.
